Results on 14 compounds are retold here after paper PMC8347608, “Natural Compounds Isolated from Stachybotrys chartarum Are Potent Inhibitors of Human Protein Kinase CK2” (Molecules, 2021).

SMILES strings stand for the structures. Where two headings read alike, the source gives them in different places.

The target of data set [1] is human recombinant CK2 holoenzyme (Homo sapiens, UniProt P68400). The data set is described as follows: CE-based CK2 activity assay (substrate peptide RRRDDDSDDD). In kind it is biochemical.
Sequence of human recombinant CK2 holoenzyme (P68400 whole entry): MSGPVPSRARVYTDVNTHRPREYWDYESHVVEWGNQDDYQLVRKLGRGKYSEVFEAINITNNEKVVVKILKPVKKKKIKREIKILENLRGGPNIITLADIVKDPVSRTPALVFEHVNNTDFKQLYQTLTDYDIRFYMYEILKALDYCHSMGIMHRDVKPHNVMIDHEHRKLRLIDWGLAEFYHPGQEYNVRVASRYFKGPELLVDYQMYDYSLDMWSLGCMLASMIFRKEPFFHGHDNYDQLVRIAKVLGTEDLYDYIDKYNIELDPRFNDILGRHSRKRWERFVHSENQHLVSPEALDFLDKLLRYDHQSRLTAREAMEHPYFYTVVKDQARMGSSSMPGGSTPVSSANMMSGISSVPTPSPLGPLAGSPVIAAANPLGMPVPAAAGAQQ
Sequence of human recombinant CK2 holoenzyme (P67870 whole entry partner): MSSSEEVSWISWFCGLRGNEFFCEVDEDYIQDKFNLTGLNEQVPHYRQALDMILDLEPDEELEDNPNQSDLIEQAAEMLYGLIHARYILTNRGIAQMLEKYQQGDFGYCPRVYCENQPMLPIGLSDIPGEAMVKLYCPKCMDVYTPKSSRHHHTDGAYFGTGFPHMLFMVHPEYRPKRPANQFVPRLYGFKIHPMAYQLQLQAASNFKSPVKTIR
For a further data set, the target named is T1, LDH-5 from rabbit muscle (Oryctolagus cuniculus, UniProt P13491).
T1 construct: LDH-5 from rabbit muscle; purchased Roche Diagnostics GmbH, Mannheim, Germany; host or cells: rabbit muscle
The data set is described as follows: LDH assay (NADH absorption at 340 nm). In kind it is biochemical. The note with it: 10 µM compound; data not shown. The source says:
A reaction of aldehyde groups appearing at position 4´and 5´ of the phenylspirodrimanes such as acetoxystachybotrydial acetate (Figure 1) with amino acids in proteins has been reported before. The ATP dependency of the IC50 value as shown above is a clear indicator that the interaction between the compound and CK2 seems to be specific and is not due to any non-specific reaction of the dialdehydes of phenylspirodrimanes with amines in a protein. Finally, to rule out this aspect, the inhibitory effect of acetoxystachybotrydial acetate on lactate dehydrogenase (LDH) was determined. Even at a concentration of 10 µM, no inhibition of LDH by acetoxystachybotrydial acetate was observed, indicating no non-specific interaction of acetoxystachybotrydial acetate by coupling to protein amines (data not shown).
For the determination of enzymatic activity of lactate dehydrogenase (LDH), 0.25 µg of LDH-5 from rabbit muscle (Roche Diagnostics GmbH, Mannheim, Germany) was incubated in phosphate buffered saline (PBS) containing 0.25 mM nicotinamide adenine dinucleotide (NADH) and 0.625 mM pyruvate in a total volume of 1 mL at room temperature. Absorption at 340 nm was monitored every 5 s within 5 min. For the determination of inhibitory activity of phenylspirodrimanes towards LDH, acetoxystachybotrydial acetate was added in a final concentration of 10 µM; 0.1% DMSO served as a control.

Data set [2] deals with MCF7 NucLight Green cells. The data set is described as follows: IncuCyte live-cell imaging, cell growth (confluence). The format is cell-based, human. The note with it: 48 h.
Data set [3] deals with A427 cells. The description is as above. In kind it is cell-based, human. To be noted: 48 h.
The test system of data set [4] is A431 cells. The data set is described as above. In kind it is cell-based, human. The note with it: 48 h.
In data set [5] the test system is MCF7 NucLight Green cells. The experiment in a line: EdU cell proliferation assay. In kind it is cell-based, human. To be noted: for proliferating cells relative to control: 24 h incubation.
A further data set can be described thus: MTT cell viability assay. To be noted: human, cell viability (% of control).
The subject of data set [6] is MCF7 cells.
A further data set is described as follows: in vitro. To be noted: human.
Data set [7] concerns A427 cells. The experiment in a line: MTT cell viability assay. The note with it: 48 h; for reduction of cell viability: 10 µM, data not shown. For orientation: Tetrazolium dyes change colour on reduction, which living cells bring about.
In data set [8] the test system is A431 cells. The data set is described as follows: MTT cell viability assay. To be noted: 48 h; for reduction of cell viability: 10 µM, data not shown.
In data set [9] the test system is MCF7 cells. The data set is described as follows: MTT cell viability assay. The note with it: 100 µM, 48 h.
Data set [10] concerns MCF7 cells. Further details: method as in PMID 30965682. The note with it: other human CK2 inhibitor, compared with MCF7 value; cited from earlier work.
Where [11] appears, read: 10 µM compound, relative to DMSO control, read-out: % Inhibition at 10 µM.
Where [12] appears, read: read-out: % Inhibition at 10 µM.
The mark [13] stands for this setting: nine concentrations 0.001-100 µM, mean ± SD, three independent experiments, read-out: IC50.

The IC50 is the concentration that inhibits the measured activity by half. One may read the Ki as a dissociation constant, usually derived from enzyme kinetics or from competition with a known ligand. The term viability denotes a read-out of living cells in per cent, often relative to untreated cells. For the compound `CC(=O)OC1CC2(C)C(CCC(C)C23Cc2c(O)cc(C=O)c(C=O)c2O3)C(C)(C)C1OC(C)=O` (centres unmarked) [Acetoxystachybotrydial acetate], in [1], the 50% inhibitory concentration (IC50) is 1860 nM. For the same compound, in [1], the Ki was found to be 1410 nM. Also, the mode of inhibition entry in [1] is on record as “ATP competitive mode of inhibition”. Besides, the “inhibition of LDH” value against LDH-5 from rabbit muscle was “no inhibition”. The “cell growth (confluence)” value in data set [2] (1 µM) is listed as “completely blocked”; with A427 cells [3] (1 µM), “strongly impaired”; in the data set with A431 cells [4] (1 µM), “completely blocked”. Also, the “total number of cells (phase contrast images)” value in data set [2] (1 µM, compared with 1% DMSO control) is “strongly reduced”. In addition, the “proliferating cells relative to control” value in data set [5] (1 µM) was “Less than 1%”. The EC50 in [5] (Homo sapiens, MCF7, 24 h, read-out: EC50 inhibition of cell proliferation) was 390 nM. In the data set “MTT cell viability assay” (1 µM), the viability at 48 h, 1 µM amounted to 14%. In addition, in the data set “MTT cell viability assay” (100 µM), the viability at 48 h, 100 µM came to 12%.

For orientation: inhibition means the change of the read-out against control, counted positive when it falls. In the case of `C[C@@H]1CC[C@H]2C(C)(C)[C@H](O)CC[C@]2(C)[C@@]12Cc1c(O)cc(CO)c(C=O)c1O2` [L-671], the inhibition at 10 µM in [1] (setting [11]) was 42%.

In the case of `CC(=O)O[C@@H]1[C@H](OC(C)=O)C[C@@]2(C)[C@@H](CC[C@@H](C)[C@]23Cc2c(O)cc(CO)c(C=O)c2O3)C1(C)C` [Stachybonoid D], the inhibition at 10 µM in data set [1] (setting [11]) was 47%.

As for `C[C@@H]1CC[C@H]2C(C)(C)[C@H](O)CC[C@]2(C)[C@@]12Cc1c(O)cc3c(c1O2)CN(CCO)C3=O` [Stachybotryamide], in data set [1] (setting [12]), the inhibition at 10 µM turned out to be 21%.

Regarding `CC(C)=CCC/C(C)=C/CC[C@@]1(C)C=Cc2c(O)cc(C)c(C=O)c2O1` [Stachybotrychromene A], the inhibition at 10 µM in data set [1] (setting [12]) turned out to be 26%.

Turning to `CC(=O)Oc1cc(O)c2c(c1C=O)O[C@@](C)(CC/C=C(\C)CCC=C(C)C)C=C2` [Stachybotrychromene B], the inhibition at 10 µM in [1] (setting [12]) came out at 47%.

With `CC(C)=CCCC(C)=CCCC1(C)C=Cc2c(O)cc(C=O)c(C=O)c2O1` (centres unmarked) [Stachybotrychromene C], in data set [1] (setting [13]), the IC50 was 320 nM. Also, the “cell growth (confluence)” value in data set [2] (1 µM) was “no inhibition of growth”; in data set [2] (100 µM) it was “reduce the growth”; in the data set on A427 cells [3] (1 µM), “no inhibition of growth”; in the data set with A427 cells [3] (100 µM), “no other cell line was affected”; in the data set on A431 cells [4] (1 µM) it was “no inhibition of growth”; in the data set on A431 cells [4] (100 µM), “no other cell line was affected”. Besides, in [5] (100 µM), the “proliferating cells relative to control” value is reported as “negligible effects”. The “cell viability (% of control)” value with MCF7 cells [6] (100 µM) is listed as “not decreased”. Also, the viability at 48 h, 1 µM in the data set “in vitro” worked out at 155%. Further, the “reduction of cell viability (by %)” value in the data set with A427 cells [7] (1 µM) is recorded as 32%; in the data set on A431 cells [8] (1 µM), 27%. Further, the “reduction of cell viability” value with A427 cells [7] and in the data set with A431 cells [8] was “Almost no further reduction” throughout. In addition, the “increase of inhibitory effect on cell viability compared with 1 µM” value in the data set on A427 cells [7] (100 µM) and in the data set with A431 cells [8] (100 µM) was ~10% in each case.

Take `CC(=O)OC1CCC2(C)C(CCC(C)C23Cc2c(O)cc(C=O)c(C=O)c2O3)C1(C)C` (centres unmarked) [Stachybotrydial acetate]: in data set [1] (setting [13]), the half-maximal inhibitory concentration (IC50) was found to be 690 nM. Also, the “cell growth (confluence)” value in [2] (1 µM) is “no effect”; in [2] (100 µM), “completely blocked”; with A427 cells [3] (1 µM), “no effect”; with A427 cells [3] (100 µM) it was “completely blocked”; in the data set with A431 cells [4] (1 µM), “no effect”; with A431 cells [4] (100 µM), “completely blocked”. For the same compound, the “cell viability (% of control)” value in the data set with MCF7 cells [6] (1 µM) is “increased”. Also, the “reduction of cell viability (by %)” value in the data set on MCF7 cells [9] came to 86%; in the data set on A427 cells [7] (100 µM), 82%; in the data set on A431 cells [8] (100 µM) it was 93%. The “reduction of cell viability” value with A427 cells [7] and with A431 cells [8] was “not significant” in each case.

For the compound `C[C@@H]1CC[C@H]2C(C)(C)[C@H](O)CC[C@]2(C)[C@@]12Cc1c(O)cc(C=O)c(C=O)c1O2` [Stachybotrydial], the IC50 in [1] (setting [13]) was 4430 nM.

As to `CC(=O)O[C@@H]1CC[C@@]2(C)[C@@H](CC[C@@H](C)[C@]23Cc2c(O)cc4c(c2O3)CNC4=O)C1(C)C` [Stachybotrylactam acetate], the inhibition at 10 µM in [1] (setting [12]) was 44%.

For orientation: % Inhibition means the change of the read-out against control, counted positive when it falls. Regarding `CC(=O)O[C@@H]1CC[C@@]2(C)[C@@H](CC[C@@H](C)[C@]23Cc2c(O)cc(CO)c(C=O)c2O3)C1(C)C` [Stachybotrysin B], in data set [1], the “% Inhibition at 10 µM” value amounted to 50%. In data set [1] (setting [13]), the half-inhibitory concentration (IC50) was determined as 13400 nM. In addition, the inhibition at 10 µM in [1] (read-out: % Inhibition at 10 µM, 10 µM compound, relative to DMSO control) was > 50%.

Regarding `CC(=O)O[C@@H]1[C@H](O)C[C@@]2(C)[C@@H](CC[C@@H](C)[C@]23Cc2c(O)cc(CO)c(C=O)c2O3)C1(C)C` [Stachybotrysin C], the inhibition at 10 µM in data set [1] (setting [12]) amounted to 37%.

As for `COC1=CC(=O)c2c(c(O)c3oc4cc(OC)cc(C)c4c(=O)c3c2O)C1=O` [bikaverin], in the data set on MCF7 cells [10], the EC50 is 1970 nM.

Turning to `Cc1cc(O)c2c(c1)C(=O)c1cc(O)cc(O)c1C2=O` [emodin, reference compound], the “proliferating cells relative to control” value in [5] (1 µM) is recorded as “no effect”; in data set [5] (10 µM) it was 77%; in data set [5] (100 µM) it was 5%.
